From PubChem BioAssay AID248 (DTP/NCI, 2004)
Inconclusive results and toxic doses are left out. Rule as the data show it: active = T/C of 150% or more; inactive = T/C below 125%.

Tested on: L1210 leukemia ip in BDF1 mice, survival T/C
Test: NCI In Vivo Anticancer Drug Screen. Data for tumor model L1210 Leukemia (intraperitoneal) in B6D2F1 (BDF1) mice
Conditions: endpoint: mean survival time, higher = longer survival
How it was run: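 Transplantable tumor model; survival measured in treated vs vehicle control mice. Value = treated/control.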

[1] = dose: 100.0 mg/kg/injection, schedule: Q04DX003 (ip), vehicle: Klucel (hydroxypropylcellulose) (HPC)
[2] = dose: 200.0 mg/kg/injection, schedule: Q04DX003 (ip), vehicle: Klucel (hydroxypropylcellulose) (HPC)
[3] = dose: 400.0 mg/kg/injection, schedule: Q04DX003 (ip), vehicle: Klucel (hydroxypropylcellulose) (HPC)
[4] = dose: 100.0 mg/kg/injection, schedule: Q01DX001 (ip), vehicle: other
[5] = dose: 200.0 mg/kg/injection, schedule: Q01DX001 (ip), vehicle: other
[6] = dose: 400.0 mg/kg/injection, schedule: Q01DX001 (ip), vehicle: other
[7] = dose: 100.0 mg/kg/injection, schedule: Q04DX002 (ip), vehicle: Klucel (hydroxypropylcellulose) (HPC)
[8] = dose: 100.0 mg/kg/injection, schedule: Q01DX009 (ip), vehicle: saline with Tween-80
[9] = dose: 100.0 mg/kg/injection, schedule: Q04DX003 (ip), vehicle: saline with Tween-80
[10] = dose: 200.0 mg/kg/injection, schedule: Q04DX003 (ip), vehicle: saline with Tween-80
[11] = dose: 100.0 mg/kg/injection, schedule: Q01DX009 (ip), vehicle: Klucel (hydroxypropylcellulose) (HPC)
[12] = dose: 200.0 mg/kg/injection, schedule: Q01DX009 (ip), vehicle: Klucel (hydroxypropylcellulose) (HPC)
[13] = dose: 400.0 mg/kg/injection, schedule: Q01DX009 (ip), vehicle: Klucel (hydroxypropylcellulose) (HPC)
[14] = dose: 100.0 mg/kg/injection, schedule: Q01DX001 (ip), vehicle: saline
[15] = dose: 200.0 mg/kg/injection, schedule: Q01DX001 (ip), vehicle: saline
[16] = dose: 400.0 mg/kg/injection, schedule: Q01DX001 (ip), vehicle: saline
[17] = dose: 25.0 mg/kg/injection, schedule: Q04DX002 (ip), vehicle: Klucel (hydroxypropylcellulose) (HPC)
[18] = dose: 50.0 mg/kg/injection, schedule: Q04DX002 (ip), vehicle: Klucel (hydroxypropylcellulose) (HPC)
[19] = dose: 200.0 mg/kg/injection, schedule: Q01DX009 (ip), vehicle: saline with Tween-80

Measured: T/C

Cc1nonc1C
inactive: dose: 31.2 mg/kg/injection, schedule: Q01DX Z (ip), vehicle: other 100 % of control | dose: 62.5 mg/kg/injection, schedule: Q01DX Z (ip), vehicle: other 90 % of control | [1] 103 % of control | dose: 125.0 mg/kg/injection, schedule: Q01DX Z (ip), vehicle: other 88 % of control | [2] 98 % of control | dose: 250.0 mg/kg/injection, schedule: Q01DX Z (ip), vehicle: other 90 % of control | [3] 106 % of control

CN(C)c1ccc(/C=C/C=N/Nc2nnc(N/N=C/C=C/c3ccc(N(C)C)cc3)c3ccccc23)cc1
inactive: dose: 50.0 mg/kg/injection, schedule: Q01DX001 (ip), vehicle: other 109 % of control | [4] 100 % of control | [5] 103 % of control | [6] 100 % of control

C(=N\N1CCN(/N=C/c2ccccc2)C1c1ccccc1)/c1ccccc1
inactive: [1] 106 % of control | [2] 94 % of control | [3] 101 % of control

O=C(/C=C(/NC1CCCCC1)c1ccccc1)c1ccccc1
inactive: [1] 98 % of control | [2] 102 % of control | [3] 100 % of control

O=C(Nc1ccc(Cl)c(Cl)c1)Nc1ccccc1O
inactive: [1] 100 % of control | [2] 102 % of control | [3] 100 % of control

Cc1c(C)c2cc(Br)ccc2[nH]c1=O
inactive: [4] 103 % of control | [5] 97 % of control | [6] 97 % of control

CCCCCCCCCCCCCCCCCCNC(=S)OC
inactive: [7] 91 % of control | dose: 200.0 mg/kg/injection, schedule: Q04DX002 (ip), vehicle: Klucel (hydroxypropylcellulose) (HPC) 97 % of control | dose: 400.0 mg/kg/injection, schedule: Q04DX002 (ip), vehicle: Klucel (hydroxypropylcellulose) (HPC) 102 % of control

O=C1C(=O)c2ccccc2C(O)=C1Sc1ccc(Cl)cc1
inactive: dose: 75.0 mg/kg/injection, schedule: Q01DX001 (ip), vehicle: carboxymethylcellulose (CMC) 103 % of control | dose: 150.0 mg/kg/injection, schedule: Q01DX001 (ip), vehicle: carboxymethylcellulose (CMC) 98 % of control | dose: 300.0 mg/kg/injection, schedule: Q01DX001 (ip), vehicle: carboxymethylcellulose (CMC) 98 % of control

Cc1cc(OC(=O)c2ccc(N)cc2)ccc1C1=NCC(C)S1 (configuration not stated)
inactive: dose: 25.0 mg/kg/injection, schedule: Q04DX002 (ip), vehicle: DMSO 89 % of control | dose: 50.0 mg/kg/injection, schedule: Q04DX002 (ip), vehicle: DMSO 92 % of control | dose: 100.0 mg/kg/injection, schedule: Q04DX002 (ip), vehicle: DMSO 100 % of control

C=C(OCC)P(=O)(OCCCC)OCCCC
inactive: dose: 100.0 mg/kg/injection, schedule: Q04DX002 (ip), vehicle: saline with Tween-80 100 % of control | dose: 200.0 mg/kg/injection, schedule: Q04DX002 (ip), vehicle: saline with Tween-80 90 % of control | dose: 400.0 mg/kg/injection, schedule: Q04DX002 (ip), vehicle: saline with Tween-80 93 % of control

Cc1ncnc2c1CCC2
inactive: dose: 50.0 mg/kg/injection, schedule: Q01DX009 (ip), vehicle: saline with Tween-80 96 % of control | [8] 105 % of control | [9] 97 % of control | [10] 97 % of control

BrC1C(Br)C(Br)C2OC2C1Br (configuration not stated)
inactive: [11] 96 % of control | [12] 102 % of control | [13] 98 % of control

O=C(O)/C=C\c1cn(C2OC(CO)C(O)C(O)C2O)c2ccccc12 (configuration not stated)
inactive: dose: 60.0 mg/kg/injection, schedule: Q01DX001 (ip), vehicle: sodium bicarbonate 105 % of control | dose: 120.0 mg/kg/injection, schedule: Q01DX001 (ip), vehicle: sodium bicarbonate 97 % of control

Cc1ccc(S(=O)(=O)OCC2OC(C)(C)OC3C(COS(=O)(=O)c4ccc(C)cc4)OC(C)(C)OC23)cc1 (configuration not stated)
inactive: [14] 99 % of control | [15] 89 % of control | [16] 99 % of control

NCCCOC12CC3CC(CC(C3)C1)C2
inactive: dose: 10.0 mg/kg/injection, schedule: Q04DX002 (ip), vehicle: saline 106 % of control | dose: 20.0 mg/kg/injection, schedule: Q04DX002 (ip), vehicle: saline 117 % of control | dose: 40.0 mg/kg/injection, schedule: Q04DX002 (ip), vehicle: saline 102 % of control

CCCCCC(=O)c1c(O)cc2c(c1O)C(=O)c1c(O)cc(O)cc1C2=O
inactive: [14] 86 % of control | dose: 300.0 mg/kg/injection, schedule: Q01DX001 (ip), vehicle: saline 91 % of control

CC1=C(N)NN(O)C=C1
inactive: dose: 100.0 mg/kg/injection, schedule: Q04DX002 (ip), vehicle: saline 104 % of control | dose: 200.0 mg/kg/injection, schedule: Q04DX002 (ip), vehicle: saline 116 % of control | dose: 400.0 mg/kg/injection, schedule: Q04DX002 (ip), vehicle: saline 101 % of control

Cc1ccc(N(C=O)N=O)cc1
inactive: [14] 101 % of control | [15] 98 % of control

C[N+](C)(C)c1ncnc2[n-]cnc12
inactive: dose: 50.0 mg/kg/injection, schedule: Q01DX015 (ip), vehicle: saline 110 % of control

ClCC1=NCCCN1
inactive: dose: 3.13 mg/kg/injection, schedule: Q01DX009 (ip), vehicle: Klucel (hydroxypropylcellulose) (HPC) 93 % of control | dose: 6.25 mg/kg/injection, schedule: Q01DX009 (ip), vehicle: Klucel (hydroxypropylcellulose) (HPC) 97 % of control | dose: 12.5 mg/kg/injection, schedule: Q01DX009 (ip), vehicle: Klucel (hydroxypropylcellulose) (HPC) 97 % of control | dose: 12.5 mg/kg/injection, schedule: Q04DX002 (ip), vehicle: Klucel (hydroxypropylcellulose) (HPC) 97 % of control | dose: 25.0 mg/kg/injection, schedule: Q01DX009 (ip), vehicle: Klucel (hydroxypropylcellulose) (HPC) 97 % of control | [17] 104 % of control | dose: 50.0 mg/kg/injection, schedule: Q01DX009 (ip), vehicle: Klucel (hydroxypropylcellulose) (HPC) 97 % of control | [18] 104 % of control | [7] 98 % of control

CCCCCCCCCCCCCCCCCC(=O)N/N=C\c1ccc(O)c(OC)c1
inactive: [11] 95 % of control | [12] 90 % of control | [13] 88 % of control

CS(=O)(=O)c1ccc(Br)cc1
inactive: [8] 103 % of control | [9] 90 % of control | [19] 102 % of control | [10] 98 % of control | dose: 400.0 mg/kg/injection, schedule: Q01DX009 (ip), vehicle: saline with Tween-80 102 % of control | dose: 400.0 mg/kg/injection, schedule: Q04DX003 (ip), vehicle: saline with Tween-80 96 % of control

CCOC(=O)c1ccc(NC(=O)Nc2ccc(OC)c([N+](=O)[O-])c2)cc1
inactive: [8] 95 % of control | [19] 90 % of control

O=c1[nH]c2ccc(Br)cc2cc1Br
inactive: [14] 97 % of control | [15] 97 % of control | [16] 97 % of control

COC1(c2ccccc2)Oc2ccccc2C(=O)C1(O)C[N+](=O)[O-] (configuration not stated)
inactive: dose: 50.0 mg/kg/injection, schedule: Q01DX001 (ip), vehicle: saline 95 % of control | [14] 89 % of control | [15] 95 % of control | [16] 101 % of control

O=C(OCc1ccccc1CN1CCOCC1)c1ccc([N+](=O)[O-])cc1Cl
inactive: [17] 92 % of control | [18] 106 % of control | [7] 100 % of control

O=[N+]([O-])c1cccc(C2=NNC(c3cccc([N+](=O)[O-])c3)=NN2)c1
inactive: dose: 175.0 mg/kg/injection, schedule: Q01DX001 (ip), vehicle: saline 87 % of control | dose: 265.0 mg/kg/injection, schedule: Q01DX001 (ip), vehicle: saline 92 % of control | [16] 89 % of control | dose: 600.0 mg/kg/injection, schedule: Q01DX001 (ip), vehicle: saline 89 % of control
